Tests used:
[1] = target: Acetylcholinesterase (Homo sapiens, UniProt P22303); assay: Inhibition of human AChE using acetylthiocholine iodide as substrate treated 5 mins before substrate addition measured up to 4 mins by Ellman's method
[2] = target: Cholinesterase (Homo sapiens, UniProt P06276)
Chain of Cholinesterase (P06276 whole entry): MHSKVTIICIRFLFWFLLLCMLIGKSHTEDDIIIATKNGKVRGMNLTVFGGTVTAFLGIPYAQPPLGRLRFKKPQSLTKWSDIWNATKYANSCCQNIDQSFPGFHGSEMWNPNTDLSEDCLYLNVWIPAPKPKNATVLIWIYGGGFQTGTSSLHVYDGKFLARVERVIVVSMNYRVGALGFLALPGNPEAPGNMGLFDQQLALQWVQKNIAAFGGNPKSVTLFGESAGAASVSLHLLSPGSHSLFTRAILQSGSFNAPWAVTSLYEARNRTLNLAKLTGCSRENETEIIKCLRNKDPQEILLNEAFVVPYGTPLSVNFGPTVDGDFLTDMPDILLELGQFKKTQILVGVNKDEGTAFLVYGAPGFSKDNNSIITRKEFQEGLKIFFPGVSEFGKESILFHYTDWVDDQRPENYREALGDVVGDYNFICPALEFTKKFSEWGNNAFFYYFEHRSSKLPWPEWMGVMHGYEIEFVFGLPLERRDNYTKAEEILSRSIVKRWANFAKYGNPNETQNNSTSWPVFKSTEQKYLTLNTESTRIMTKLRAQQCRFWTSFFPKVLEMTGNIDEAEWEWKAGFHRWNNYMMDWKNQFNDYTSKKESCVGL
Description: Inhibition of human BuChE using S-butyrylthiocholine iodide as substrate treated 5 mins before substrate addition measured up to 4 mins by Ellman's method

Chain of Acetylcholinesterase (P22303 whole entry): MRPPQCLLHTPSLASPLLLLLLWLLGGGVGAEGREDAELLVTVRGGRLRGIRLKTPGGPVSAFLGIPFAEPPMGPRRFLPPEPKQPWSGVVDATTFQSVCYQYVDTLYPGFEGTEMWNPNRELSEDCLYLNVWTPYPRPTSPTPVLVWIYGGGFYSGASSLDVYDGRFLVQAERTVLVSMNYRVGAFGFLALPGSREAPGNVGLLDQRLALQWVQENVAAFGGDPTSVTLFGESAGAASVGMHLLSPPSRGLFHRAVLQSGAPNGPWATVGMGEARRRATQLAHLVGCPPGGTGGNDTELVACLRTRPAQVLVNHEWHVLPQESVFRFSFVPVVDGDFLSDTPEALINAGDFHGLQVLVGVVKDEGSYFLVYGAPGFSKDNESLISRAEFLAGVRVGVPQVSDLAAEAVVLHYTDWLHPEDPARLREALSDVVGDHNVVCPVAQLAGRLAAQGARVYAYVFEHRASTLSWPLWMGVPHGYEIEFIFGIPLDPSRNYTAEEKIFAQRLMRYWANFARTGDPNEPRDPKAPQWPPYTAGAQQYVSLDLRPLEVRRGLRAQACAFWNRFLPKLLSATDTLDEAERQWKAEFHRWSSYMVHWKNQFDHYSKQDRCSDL

Structure (SMILES) | IC50 [1] [µM] | IC50 [2] [µM]
CC(=O)CCCCn1c(=O)c2c(ncn2C)n(C)c1=O [PENTOXIFYLLINE] | 6.6 | > 50
CCCn1cnc2c1c(=O)n(CCCCC(C)=O)c(=O)n2C [PROPENTOFYLLINE] | 6.4 | > 50
O=c1[nH]c(=O)c2[nH]cnc2[nH]1 [XANTHINE] | 9 | > 50
